# Assay results: patent US10344330B2, “Glatiramer acetate response biomarker mRNA potency assay” (Mylan Inc., priority 2013, dated 2019)
# B1: MBP: myelin basic protein, a negative control (protein, UniProt P02686 1-304, looked up)
# Myelin basic protein: MGNHAGKRELNAEKASTNSETNRGESEKKRNLGELSRTTSEDNEVFGEADANQNNGTSSQDTAVTDSKRTADPKNAWQDAHPADPGSRPHLIRLFSRDAPGREDNTFKDRPSESDELQTIQEDSAATSESLDVMASQKRPSQRHGSKYLATASTMDHARHGFLPRHRDTGILDSIGRFFGGDRGAPKRGSGKDSHHPARTAHYGSLPQKSHGRTQDENPVVHFFKNIVTPRTPPPSQGKGRGLSLSRFSWGAEGQRPGFGYGGRASDYKSAHKGFKGVDAQGTLSKIFKLGGRDSRSGSPMARR
# Columns and labels:
# IL-5 mRNA in LN cells = assay: IL-5 mRNA by real-time PCR in LN cells of GA-immunized CD-1, BALB/cByJ, SJL/J mice (Example III); type: cell-based, mouse; settings: 6 hours
# Experimental: On Day 0, mice were immunized with 250 μg GA (GMA, Mylan Pharmaceuticals, Inc.) and CFA. The GA solution (20 mg/mL) was diluted with Dulbecco's Phosphate-Buffered Saline to 5 mg/mL. The dosing formulation consisted of equal volumes of the diluted GA solution (5 mg/mL) and CFA solution, mixed until well-emulsified. Animals were weighed and allocated to groups. Animals were dosed by injection into four footpads. The injection volume per animal was 0.1 mL (about 10 μL into each front footpad, and 40 μL into each hind footpad).
# Immunized animals were euthanized by cervical dislocation on Day 10 post-immunization. Lymph node cells were isolated from animals and treated with Myelin Basic Protein (MBP, a negative control), Concanavalin A (ConA, a positive control) or GA as shown in Table 16. Lymph nodes in the axillary and popliteal regions were removed aseptically in a purifier clean bench. […] The LN were then washed 3 times with −5 mL of RPMI medium, and isolated by pressing the LN with a syringe plunger. […] The cell suspension was centrifuged at about 200×g for 10 minutes at about 4° C. and re-suspended in ice cold enriched DCCM-1 medium. Cells were seeded in 96-well tissue culture plates.
# LN cells isolated from GA-immunized animals were stimulated with GA (GMA, Mylan Pharmaceuticals, Inc.) at concentrations as indicated in Tables 16 and 17. A positive control was prepared by treating LN cells with 2.5 μg/mL concavalin A (ConA, a non-specific T cell stimulant). Myelin basic protein (MBP, 10 μg/mL) and enriched DCCM-1 medium served as negative controls. The cells from all groups each were stimulated with the same GA lot. Each reaction was set up in triplicate.
# After incubation at about 37° C. in a humidified CO2 incubator for 6 hours, the cells were lysed for total RNA isolation. Total RNA was isolated from treated LN cells using SV 96 Total RNA Isolation System according to the manufacturer's protocol (Promega, Cat. #Z3500). Cells were washed once with Phosphate Buffered Saline (PBS) and lysed in RNA lysis buffer. The lysate was transferred to wells of the SV 96 binding plate. Samples were washed with RNA wash solution and treated with DNase. Total RNA was eluted with nuclease-free water from the binding plate.
# After the reverse transcriptase reaction was completed, cDNA samples were used directly for real-time PCR to measure the response biomarker mRNA levels produced by the stimulated cells. […] All probes for target genes contained FAM dye, and probes for the internal control contained VIC®/MGB dye. Samples will be prepared and run in 96-well plates using a Real-Time PCR system (7500, Life Technologies). This system allows direct detection of PCR-product formation by measuring the increase in fluorescent emission continuously during the PCR reaction. A relative quantitation method was used to analyze changes in mouse IL-2, IL-4, IL-5, IL-10, IL-13, IFN-γ and TNF-α expression in GA-treated samples relative to the untreated control (enriched DCCM-1 treated) samples. The Real-Time PCR program was:
# The levels of mouse cytokine amplicons (IL-2, IL-4, IL-5, IL-10, IL-13, mIFN-γ and TNF-α) were normalized to internal probe levels (GAPDH) from the same samples. The following equations were used to calculate the relative increase in response to GA stimulation compared to the control sample: ΔCT=CT_target−CT_reference ΔΔCT=−ΔCT_Treated−CT_VC
# [1] = tested on: mIL-5 mRNA in primary LN cells; assay: mIL-5 mRNA by real-time PCR in stimulated LN cells of immunized (SJL/J×BALB/C)F1 mice (Example I); type: cell-based, mouse; settings: for mIL-5 mRNA Level: Experiment 1, GA-immunized (SJL/J×BALB/C)F1; for mIL-5 mRNA: not normalized to a reference gene
# Experimental: For each of the three experiments summarized in Table 1, female (SJL/J×BALB/C) F1 hybrid (Jackson Laboratory) mice were immunized by footpad injection with either 250 μg GMA (Mylan Pharmaceuticals, Inc.) and CFA (Sigma Aldrich), or Mannitol and CFA (as a negative control). The GA solution was diluted to 5 mg/mL with Dulbecco's Phosphate-buffered saline. A dose solution was then prepared by mixing the diluted GA solution (5 mg/mL) and CFA (1:1) until well-emulsified. Each mouse received a total injection volume of 0.1 mL (250 μg GA). Animals were immunized on Day 0. Immunized animals were sacrificed via cervical dislocation on Day 10 following immunization. […] The LN were washed 3 times with −5 mL of RPMI medium, and the LN cells isolated by pressing the LN with a syringe plunger. […] The cell suspension was centrifuged at about 200×g for 10 minutes at about 4° C. and re-suspended in ice cold enriched DCCM-1 medium. The LN cells (2.5×10^6 cells/cm^2) were plated in the wells of a 48-well tissue culture plate and stimulated with GA or controls.
# Expression of cytokine mRNA was quantitatively analyzed using a Real-Time PCR system (7500, Applied Biosystems).
# (DCCM1 from Beit Haemek Ltd.; Cat. No. 05 010 1A). There was no MBP treatment for the 2-hour groups.
# Group 1B animals were female (SJL/J×BALB/C) F1 hybrid (Jackson Laboratory) mice immunized by footpad injection with either 250 μg GA and CFA, or Mannitol and CFA (as a negative control). A dose solution was prepared by mixing a diluted GA solution (5 mg/mL) and CFA (1:1). Each mouse received a total injection volume of […] (250 μg GA). Animals were immunized on Day 0. Immunized animals were sacrificed via cervical dislocation on Day 10 following immunization. Lymph nodes from immunized mice were removed and isolated. LN cells (2.5×10^6 cells/cm^2) were plated in the wells of a 48-well tissue culture plate for stimulation with GA.
# Expression of cytokine mRNA was quantitatively analyzed 4 and 6 hours after using a Real-Time PCR system (7500, Applied Biosystems).
# [2] = 2 hour post stimulation, GA 10, ConA 2.5 μg/mL
# [3] = 4 hour post stimulation, GA 10, MBP 10, ConA 2.5 μg/mL
# [4] = 6 hour post stimulation, GA 10, MBP 10, ConA 2.5 μg/mL
# [5] = 24 hour post stimulation, GA 10, MBP 10, ConA 2.5 μg/mL
# [6] = Group 1B (GA + CFA), 4 hours post-stimulation, GA 10, MBP 10, ConA 2.5 μg/mL
# [7] = Group 1B (GA + CFA), 6 hours post-stimulation, GA 10, MBP 10, ConA 2.5 μg/mL
# [8] = Group 2B (Mannitol + CFA), 4 hours post-stimulation, GA 10, MBP 10, ConA 2.5 μg/mL
# [9] = Group 2B (Mannitol + CFA), 6 hours post-stimulation, GA 10, MBP 10, ConA 2.5 μg/mL
# [10] = Group 1C: CD-1, GA-immunized, stimulation 10 μg/mL
# [11] = Group 2C: BALB/cByJ, GA-immunized, stimulation 10 μg/mL
# [12] = Group 3C: SJL/J, GA-immunized, stimulation 10 μg/mL
Molecule,"mIL-5 mRNA Level [1, 2] [fold change vs control]","mIL-5 mRNA Level [1, 3] [fold change vs control]","mIL-5 mRNA Level [1, 4] [fold change vs control]","mIL-5 mRNA Level [1, 5] [fold change vs control]","mIL-5 mRNA [1, 6] [fold change vs control]","mIL-5 mRNA [1, 7] [fold change vs control]","mIL-5 mRNA [1, 8] [fold change vs control]","mIL-5 mRNA [1, 9] [fold change vs control]",IL-5 mRNA Expression (IL-5 mRNA in LN cells; [10]) [fold change vs control],IL-5 mRNA Expression (IL-5 mRNA in LN cells; [11]) [fold change vs control],IL-5 mRNA Expression (IL-5 mRNA in LN cells; [12]) [fold change vs control],further results
"Concanavalin A [ConA, reference compound]",3.6,17.1,13.1,0.5,20.4,26.7,16.6,36.5,–,–,–,"IL-5 mRNA Expression (IL-5 mRNA in LN cells; Group 1C: CD-1, GA-immunized, stimulation 2.5 μg/mL): 19.1 fold change vs control; IL-5 mRNA Expression (IL-5 mRNA in LN cells; Group 2C: BALB/cByJ, GA-immunized, stimulation 2.5 μg/mL): 9.1 fold change vs control; IL-5 mRNA Expression (IL-5 mRNA in LN cells; Group 3C: SJL/J, GA-immunized, stimulation 2.5 μg/mL): 9.7 fold change vs control"
"L-glutamic acid polymer with L-alanine, L-lysine and L-tyrosine, acetate (salt) [GA]",1.6,4.8,5.1,1.9,4.0,4.3,1.0,1.2,5.4,3.5,4.3,"IL-5 mRNA Expression (IL-5 mRNA in LN cells; Group 1C: CD-1, GA-immunized, stimulation 0.3 μg/mL): 1.0 fold change vs control; IL-5 mRNA Expression (IL-5 mRNA in LN cells; Group 1C: CD-1, GA-immunized, stimulation 1 μg/mL): 1.8 fold change vs control; IL-5 mRNA Expression (IL-5 mRNA in LN cells; Group 1C: CD-1, GA-immunized, stimulation 3 μg/mL): 3.2 fold change vs control; IL-5 mRNA Expression (IL-5 mRNA in LN cells; Group 2C: BALB/cByJ, GA-immunized, stimulation 0.3 μg/mL): 0.5 fold change vs control; IL-5 mRNA Expression (IL-5 mRNA in LN cells; Group 2C: BALB/cByJ, GA-immunized, stimulation 1 μg/mL): 1.6 fold change vs control; IL-5 mRNA Expression (IL-5 mRNA in LN cells; Group 2C: BALB/cByJ, GA-immunized, stimulation 3 μg/mL): 2.3 fold change vs control; IL-5 mRNA Expression (IL-5 mRNA in LN cells; Group 3C: SJL/J, GA-immunized, stimulation 0.3 μg/mL): 0.6 fold change vs control; IL-5 mRNA Expression (IL-5 mRNA in LN cells; Group 3C: SJL/J, GA-immunized, stimulation 1 μg/mL): 2.1 fold change vs control; IL-5 mRNA Expression (IL-5 mRNA in LN cells; Group 3C: SJL/J, GA-immunized, stimulation 3 μg/mL): 5.1 fold change vs control; mIL-5 mRNA level increase vs DCCM-1-stimulated control ([1]; Group 1B, 4 and 6 hours (text summary of Table 10)): at least 4 fold"
B1,–,0.8,0.2,0.8,1.4,0.9,1.1,1.1,0.8,0.2,0.8,–
